Measured values taken from patent US10201564B2, “Methods of using inhaled nitric oxide gas for treatment of acute respiratory distress syndrome in children” (Mallinckrodt Hospital Products IP Limited, priority 2014, dated 2019).

Tested on: pediatric subjects with acute hypoxemic respiratory failure (AHRF)
Experiment: Pediatric AHRF study: adverse events, serious adverse events, deaths, discontinuations
Type: in vivo, human
Method: This was a prospective, multicenter, randomized, double-blind, placebo-controlled, parallel-group study of the safety and efficacy of inhaled nitric oxide in pediatric subjects with acute hypoxemic respiratory failure (AHRF). The subjects were randomized to receive either 5 ppm inhaled nitric oxide or placebo.
Nitric Oxide for inhalation at 5 ppm was administered continuously into the inspiratory limb of the ventilator circuit in mechanically ventilated subjects using a blinded version of the INOvent® delivery system.
Subjects received 100% treatment gas (nitric oxide 5 ppm or placebo [nitrogen gas]) until Day 28 or extubation, whichever occurred first.
This was a prospective, multicenter, randomized, double-blind, placebo-controlled, Phase III study to assess the effects of nitric oxide for inhalation in the treatment of acute hypoxic respiratory failure (AHRF) in pediatric subjects. The study population consisted of male and female pediatric subjects, aged 44 weeks postconceptional age to 16 years age, who were admitted to the pediatric intensive care unit (PICU) and who required intubation because of AHRF. The inclusion/exclusion criteria are described in the Patients section below.
Standardized ventilatory management and weaning procedures were used. Ventilatory management was used based on an “open lung approach” using positive end-expiratory pressure (PEEP) to increase lung volume and limiting tidal volumes to reduce plateau pressures. Subjects received nitric oxide for inhalation at 5 ppm or placebo (100% Grade 5 nitrogen gas) into the inspiratory limb of the ventilator circuit using a blinded version of the INOvent® delivery system. The subjects were treated until Day 28 or extubation, whichever occurred first. Subjects were assessed daily using a spontaneous breathing trial, according to the institution's standard of care. Arterial blood gases (ABG), ventilator settings, methemoglobin, oxygenation index, systolic blood pressure, diastolic blood pressure, Pediatric Risk of Mortality (PRISM) III score, and subject positioning (prone or supine) were performed/recorded at specified times during the study. Selected centers also performed plasma cytokine assays, bronchoalveolar lavage fluid (BALF) assays, and a 6-month follow-up assessment.

[1] = 5 ppm, relationship to study treatment Suspected

In the case of `[N]=O` [Nitric Oxide, nitric oxide], the “Serious adverse event: Hypotension, subjects n (%)” value [1] is reported as 0 (0.0), the “Serious adverse event: Hypoxia, subjects n (%)” value [1] is reported as 0 (0.0) and the “Serious adverse event: Intracranial pressure increased, subjects n (%)” value [1] is reported as 0 (0.0). For the same compound, the “Serious adverse event: Multi-organ failure, subjects n (%)” value [1] was 0 (0.0), the “Serious adverse event: Pancreatitis, subjects n (%)” value [1] was 0 (0.0) and the “Serious adverse event: Pneumonia, aspergillus, subjects n (%)” value [1] was 0 (0.0). For the same compound, the “Serious adverse event: Pulmonary hemorrhage, subjects n (%)” value [1] was 0 (0.0), the “Serious adverse event: Renal failure, acute, subjects n (%)” value [1] was 0 (0.0) and the “Serious adverse event: Renal failure, subjects n (%)” value [1] was 0 (0.0). For the same compound, the “Serious adverse event: Renal impairment, subjects n (%)” value [1] was 0 (0.0), the “Serious adverse event: Respiratory failure, subjects n (%)” value [1] was 0 (0.0) and the “Serious adverse event: Sepsis, subjects n (%)” value [1] was 0 (0.0). For the same compound, the “Serious adverse event: Subdural hematoma, subjects n (%)” value [1] was 0 (0.0), the “Serious adverse event: Unevaluable event, subjects n (%)” value [1] was 0 (0.0) and the Abdominal distension (5 ppm, subjects with AE) was 0 (0.0) n (%). The Acidosis (5 ppm, subjects with AE) was 1 (3.8%) n (%), the Agitation (5 ppm, subjects with AE) was 2 (7.7%) n (%) and the Anemia (5 ppm, subjects with AE) was 1 (3.8%) n (%). The Apnea (5 ppm, subjects with AE) was 1 (3.8%) n (%), the Arrhythmia (5 ppm, subjects with AE) was 1 (3.8%) n (%) and the Ascites (5 ppm, subjects with AE) was 1 (3.8%) n (%). The Bacteremia (5 ppm, subjects with AE) was 2 (7.7%) n (%), the “Bacteria, blood” value (5 ppm, subjects with AE) was 1 (3.8%) n (%) and the “Bacteria, sputum” value (5 ppm, subjects with AE) was 0 (0.0) n (%). The Bladder distension (5 ppm, subjects with AE) was 0 (0.0) n (%), the Brain edema (5 ppm, subjects with AE) was 0 (0.0) n (%) and the Bronchoalveolar lavage (5 ppm, subjects with AE) was 1 (3.8%) n (%). For the same compound, the C-reactive protein increased (5 ppm, subjects with AE) was 0 (0.0) n (%), the Cardiac arrest (5 ppm, subjects with AE) was 0 (0.0) n (%) and the Cerebral artery occlusion (5 ppm, subjects with AE) was 0 (0.0) n (%). For the same compound, the Chest tube insertion (5 ppm, subjects with AE) was 1 (3.8%) n (%), the Deep vein thrombosis (5 ppm, subjects with AE) was 2 (7.7%) n (%) and the Device failure (5 ppm, subjects with AE) was 0 (0.0) n (%). The Diabetic ketoacidosis (5 ppm, subjects with AE) was 0 (0.0) n (%), the Diarrhea (5 ppm, subjects with AE) was 0 (0.0) n (%) and the Disseminated intravascular coagulation (5 ppm, subjects with AE) was 0 (0.0) n (%). The Empyema (5 ppm, subjects with AE) was 0 (0.0) n (%), the Feeding disorder (5 ppm, subjects with AE) was 0 (0.0) n (%) and the Fungemia (5 ppm, subjects with AE) was 1 (3.8%) n (%). For the same compound, the Fungus culture positive (5 ppm, subjects with AE) was 0 (0.0) n (%), the “Fungus urine test positive” value (5 ppm, subjects with AE) was 0 (0.0) n (%) and the Gangrene (5 ppm, subjects with AE) was 1 (3.8%) n (%). The Gastrointestinal hemorrhage (5 ppm, subjects with AE) was 0 (0.0) n (%), the Generalized edema (5 ppm, subjects with AE) was 0 (0.0) n (%) and the Hematuria (5 ppm, subjects with AE) was 0 (0.0) n (%). For the same compound, the Hemoglobinemia (5 ppm, subjects with AE) was 1 (3.8%) n (%), the Hemolytic anemia (5 ppm, subjects with AE) was 0 (0.0) n (%) and the Hemopneumothorax (5 ppm, subjects with AE) was 0 (0.0) n (%). The Hemorrhage (5 ppm, subjects with AE) was 0 (0.0) n (%), the Hemothorax (5 ppm, subjects with AE) was 0 (0.0) n (%) and the Hepatic failure (5 ppm, subjects with AE) was 0 (0.0) n (%). For the same compound, the Hepatosplenomegaly (5 ppm, subjects with AE) was 1 (3.8%) n (%), the Hyperammonemia (5 ppm, subjects with AE) was 0 (0.0) n (%) and the Hypercalcemia (5 ppm, subjects with AE) was 1 (3.8%) n (%). The Hypercapnia (5 ppm, subjects with AE) was 0 (0.0) n (%), the Hyperchloremia (5 ppm, subjects with AE) was 1 (3.8%) n (%) and the Hyperglycemia (5 ppm, subjects with AE) was 1 (3.8%) n (%). The Hyperkalemia (5 ppm, subjects with AE) was 1 (3.8%) n (%), the Hyperlipidemia (5 ppm, subjects with AE) was 0 (0.0) n (%) and the Hypernatremia (5 ppm, subjects with AE) was 2 (7.7%) n (%). The Hypertension (5 ppm, subjects with AE) was 0 (0.0) n (%), the Hypocalcemia (5 ppm, subjects with AE) was 1 (3.8%) n (%) and the Hypochloremia (5 ppm, subjects with AE) was 0 (0.0) n (%). For the same compound, the Hypothermia (5 ppm, subjects with AE) was 0 (0.0) n (%), the Hypoxia (5 ppm, subjects with AE) was 0 (0.0) n (%) and the Intracranial pressure increased (5 ppm, subjects with AE) was 0 (0.0) n (%). For the same compound, the Labile blood pressure (5 ppm, subjects with AE) was 0 (0.0) n (%), the Leukocytosis (5 ppm, subjects with AE) was 1 (3.8%) n (%) and the “Lung infection, pseudomonal” value (5 ppm, subjects with AE) was 0 (0.0) n (%). The Medical device removal (5 ppm, subjects with AE) was 0 (0.0) n (%), the Metabolic acidosis (5 ppm, subjects with AE) was 0 (0.0) n (%) and the Metabolic alkalosis (5 ppm, subjects with AE) was 1 (3.8%) n (%). The Multi-organ failure (5 ppm, subjects with AE) was 0 (0.0) n (%), the Ocular icterus (5 ppm, subjects with AE) was 0 (0.0) n (%) and the Oliguria (5 ppm, subjects with AE) was 0 (0.0) n (%). For the same compound, the Oxygen saturation decreased (5 ppm, subjects with AE) was 2 (7.7%) n (%), the Pancreatitis (5 ppm, subjects with AE) was 0 (0.0) n (%) and the Pleural effusion (5 ppm, subjects with AE) was 0 (0.0) n (%). The Pneumomediastinum (5 ppm, subjects with AE) was 0 (0.0) n (%), the Pneumonia (5 ppm, subjects with AE) was 1 (3.8%) n (%) and the “Pneumonia, aspergillus” value (5 ppm, subjects with AE) was 0 (0.0) n (%). For the same compound, the “Pneumonia, staphylococcal” value (5 ppm, subjects with AE) was 1 (3.8%) n (%), the Pruritus (5 ppm, subjects with AE) was 0 (0.0) n (%) and the Pseudomonal sepsis (5 ppm, subjects with AE) was 1 (3.8%) n (%). For the same compound, the Pulmonary hemorrhage (5 ppm, subjects with AE) was 0 (0.0) n (%), the Pulmonary hypertension (5 ppm, subjects with AE) was 0 (0.0) n (%) and the Pyrexia (5 ppm, subjects with AE) was 0 (0.0) n (%). The Renal failure (5 ppm, subjects with AE) was 1 (3.8%) n (%), the “Renal failure, acute” value (5 ppm, subjects with AE) was 0 (0.0) n (%) and the Renal impairment (5 ppm, subjects with AE) was 0 (0.0) n (%). For the same compound, the Respiratory acidosis (5 ppm, subjects with AE) was 0 (0.0) n (%), the Sepsis (5 ppm, subjects with AE) was 0 (0.0) n (%) and the Skin injury (5 ppm, subjects with AE) was 0 (0.0) n (%). The Subdural hematoma (5 ppm, subjects with AE) was 0 (0.0) n (%), the Thrombocythemia (5 ppm, subjects with AE) was 1 (3.8%) n (%) and the Thrombocytopenia (5 ppm, subjects with AE) was 0 (0.0) n (%). For the same compound, the Tracheitis (5 ppm, subjects with AE) was 2 (7.7%) n (%), the Unevaluable event (5 ppm, subjects with AE) was 2 (7.7%) n (%) and the Urinary tract infection (5 ppm, subjects with AE) was 1 (3.8%) n (%). The “Urinary tract infection, fungal” value (5 ppm, subjects with AE) was 1 (3.8%) n (%), the Urine output decreased (5 ppm, subjects with AE) was 1 (3.8%) n (%) and the “White blood cell count increased” value (5 ppm, subjects with AE) was 0 (0.0) n (%). The “AE in which death was the outcome, subject 2001A” value (died after the treatment period) was “No AE listed in which death was the outcome”, the “AE in which death was the outcome, subject 2007” value (donor two) was “No AE listed in which death was the outcome” and the “relationship of deaths, serious AEs, severe AEs and AEs resulting in discontinuation to study treatment” value (in words) was “No death, serious AE, severe AE, or AE resulting in treatment discontinuation was suspected to be related to study treatment”. For the same compound, the “SAE (identification of subjects with serious adverse events)” value (subject 3003 (person one), nitric oxide group) was “Bradycardia, hypotension” and the “Action/Reported Outcome of SAE” value (subject 3003 (person one), nitric oxide group, DC = discontinued treatment) was “DC/death”.
